Values quoted from earlier work as cited in patent US20130171093A1, “HEALING POWDER AND METHOD OF USE THEREOF” (priority 2006, published 2013).

How the values were obtained:
[1] = test system: full thickness wounds in the backs of pigs; conditions: clean, non-infected pig wounds under Opsite
[2] = test system: acute mediastinitis wounds; conditions: 19 patients, wounds packed every 3 to 4 hours

Structure (SMILES) | wound healing / granulation tissue formation versus wounds covered with Opsite alone [1] | debridement of the wound [2] | eradication of bacterial infection, average time of treatment [2]
N=C(NCCCCCCNC(=N)NC(=N)Nc1ccc(Cl)cc1)NC(=N)Nc1ccc(Cl)cc1.O=C(O)[C@H](O)[C@@H](O)[C@H](O)[C@H](O)CO.O=C(O)[C@H](O)[C@@H](O)[C@H](O)[C@H](O)CO [chlorhexidine gluconate 0.2%, chlorhexidine gluconate] | delayed healing |  | 
OC[C@H]1O[C@@](CO)(O[C@H]2O[C@H](CO)[C@@H](O)[C@H](O)[C@H]2O)[C@@H](O)[C@@H]1O [granular sugar, sucrose] |  | near complete debridement | 7.6 days
